The values below come from US20240208912A1 (Mirati Therapeutics, Inc., priority 2021, published 2024).

Where a name gives a salt, the structure may show the parent alone. Read-outs that look alike come from different tables or passages of the source. A value given as a limit tells only on which side of the number the result lay.

Assay [1] deals with HCT116 homozygous MTAP knockout cells. In words: Proliferation assay (CellTiter-Glo, 10 days) in HCT116 homozygous MTAP knockout cells. The class given is cell-based. The settings on record: CellTiter-Glo after 10 days of treatment, read-out: Proliferation IC50 (nM) HCT116 MTAP_KO. The essentials:
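CellTiter-Glo viability read on day 11 gives a 10-day IC50. Dosing began one day after seeding, with a 1:10 split into fresh drug-containing medium on day 6. Cells are HCT116 lacking both MTAP alleles via CRISPR/Cas9, run alongside the parental line.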
On the technique in general: ATP-based viability assays read luminescence as a measure of living cells.

Another assay addresses T1, PRMT5/MEP50 complex (Homo sapiens, UniProt O14744).
T1 construct: purchased Reaction Biology Corporation
Description: PRMT5:MEP50 HotSpot Assay (full-length histone H2A substrate, plus and minus MTA). The class given is biochemical. The settings on record: IC50 + 2 μM MTA, in the presence of 2 μM MTA. The essentials: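 Tritiated product on full-length recombinant H2A was counted by scintillation after the stopped reaction was captured on filter paper. Substrate is histone H2A; conditions include plus and minus MTA.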

T1 sequence (O14744 2-637 limits assumed): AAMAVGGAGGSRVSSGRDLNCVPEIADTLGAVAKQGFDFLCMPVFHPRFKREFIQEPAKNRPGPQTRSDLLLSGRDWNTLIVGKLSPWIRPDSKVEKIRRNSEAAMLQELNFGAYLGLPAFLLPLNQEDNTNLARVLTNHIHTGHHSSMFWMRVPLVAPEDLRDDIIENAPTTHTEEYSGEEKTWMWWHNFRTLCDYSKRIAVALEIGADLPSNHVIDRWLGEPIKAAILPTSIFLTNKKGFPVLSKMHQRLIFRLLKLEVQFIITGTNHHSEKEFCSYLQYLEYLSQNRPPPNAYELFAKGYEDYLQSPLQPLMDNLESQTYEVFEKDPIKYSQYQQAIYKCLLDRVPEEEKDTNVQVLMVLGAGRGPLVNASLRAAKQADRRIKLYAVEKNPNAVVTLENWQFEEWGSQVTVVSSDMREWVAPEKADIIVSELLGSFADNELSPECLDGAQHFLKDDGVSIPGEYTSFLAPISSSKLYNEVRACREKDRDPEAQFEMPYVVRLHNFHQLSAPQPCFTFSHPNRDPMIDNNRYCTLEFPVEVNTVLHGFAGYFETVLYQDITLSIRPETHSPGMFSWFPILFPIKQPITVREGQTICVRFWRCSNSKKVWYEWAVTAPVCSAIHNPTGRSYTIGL
T1 sequence (Q9BQA1 2-342 partner limits assumed): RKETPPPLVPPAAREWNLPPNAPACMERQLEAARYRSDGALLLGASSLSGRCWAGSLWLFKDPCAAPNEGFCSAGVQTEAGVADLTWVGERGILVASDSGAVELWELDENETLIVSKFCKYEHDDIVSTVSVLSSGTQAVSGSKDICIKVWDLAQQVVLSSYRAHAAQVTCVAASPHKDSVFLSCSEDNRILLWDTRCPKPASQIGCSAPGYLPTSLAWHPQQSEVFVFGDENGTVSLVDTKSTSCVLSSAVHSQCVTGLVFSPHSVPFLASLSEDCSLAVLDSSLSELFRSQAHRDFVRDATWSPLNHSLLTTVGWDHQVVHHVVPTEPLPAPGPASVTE

Take `Cn1ncc(-c2ccc3c(=O)[nH]nc(CN)c3c2)c1-c1c(F)cc2c(c1C#N)OCCO2` (single isomer, unassigned) [Example 16-89, (P)-6-[4-[4-(aminomethyl)-1-oxo-2H-phthalazin-6-yl]-2-methyl-pyrazol-3-yl]-7-fluoro-2,3-dihydro-1,4-benzodioxine-5-carbonitrile]: the IC50 in assay [1] worked out at 514 nM; at PRMT5/MEP50 complex, 1.36 µM.
As to `Cn1ncc(-c2ccc3c(=O)[nH]nc(CN)c3c2)c1-c1c(F)cc2c(c1C#N)OCCO2` (single isomer, unassigned) [Example 16-90, (M)-6-[4-[4-(aminomethyl)-1-oxo-2H-phthalazin-6-yl]-2-methyl-pyrazol-3-yl]-7-fluoro-2,3-dihydro-1,4-benzodioxine-5-carbonitrile], the IC50 stood at 138 nM in assay [1] and 0.248 µM at PRMT5/MEP50 complex.
In the same order, the values of `Cn1ncc(-c2ccc3c(=O)[nH]nc(CN)c3c2)c1-c1c(C#N)cc2ncccc2c1F` (single isomer, unassigned) [Example 16-91, (P)-6-[4-[4-(aminomethyl)-1-oxo-2H-phthalazin-6-yl]-2-methyl-pyrazol-3-yl]-5-fluoro-quinoline-7-carbonitrile] are 2670 nM and 0.454 µM.
In the same order, the values of `Cn1ncc(-c2ccc3c(=O)[nH]nc(CN)c3c2)c1-c1c(C#N)cc2ncccc2c1F` (single isomer, unassigned) [Example 16-92, (M)-6-[4-[4-(aminomethyl)-1-oxo-2H-phthalazin-6-yl]-2-methyl-pyrazol-3-yl]-5-fluoro-quinoline-7-carbonitrile] are 403 nM and 2.04 µM.
Turning to `Cc1c(F)c(-c2c(-c3cc(C)c4c(=O)[nH]nc(CN)c4c3)cnn2C)c(C#N)c2ncc(Cl)cc12` (single isomer, unassigned) [Example 16-95, (P)-7-(4-(4-(aminomethyl)-8-methyl-1-oxo-1,2-dihydrophthalazin-6-yl)-1-methyl-1H-pyrazol-5-yl)-3-chloro-6-fluoro-5-methylquinoline-8-carbonitrile], the IC50 in assay [1] (Homo sapiens, HCT-116, 240 h) is 1230 nM; on PRMT5/MEP50 complex it was 0.8 µM.
As to `CCOc1cc(-c2cnn(C)c2-c2c(F)c(C)c3cc(Cl)cnc3c2C#N)cc2c(CN)n[nH]c(=O)c12` (single isomer, unassigned) [Example 16-99, (P)-7-(4-(4-(aminomethyl)-8-ethoxy-1-oxo-1,2-dihydrophthalazin-6-yl)-1-methyl-1H-pyrazol-5-yl)-3-chloro-6-fluoro-5-methylquinoline-8-carbonitrile], the IC50 in assay [1] (Homo sapiens, HCT-116, 240 h) is 10000 nM; at PRMT5/MEP50 complex, 9.87 µM.
Take `Cc1cc(-c2c(-c3ccc4c(=O)[nH]nc(CN)c4c3)cnn2C)n2c1CCCC2=O` [Example 4-257, 4-(aminomethyl)-6-[1-methyl-5-(1-methyl-5-oxo-7,8-dihydro-6H-indolizin-3-yl)pyrazol-4-yl]-2H-phthalazin-1-one]: the IC50 in assay [1] (Homo sapiens, HCT-116, 240 h) was 618 nM; on PRMT5/MEP50 complex, 0.547 µM.
As for `Cn1ncc(-c2ccc3c(=O)[nH]nc(CN)c3c2)c1-c1ccc2n1C(=O)CC2` [Example 4-260, 4-(aminomethyl)-6-[1-methyl-5-(5-oxo-6,7-dihydropyrrolizin-3-yl)pyrazol-4-yl]-2H-phthalazin-1-one], the IC50 came out at 2680 nM in assay [1] (Homo sapiens, HCT-116, 240 h) and 0.575 µM on PRMT5/MEP50 complex.
In the same order, the values of `Cn1ncc(-c2ccc3c(=O)[nH]nc(CN)c3c2)c1-c1sc2ncc(Cl)cc2c1C#N` [Example 4-263, 2-[4-[4-(aminomethyl)-1-oxo-2H-phthalazin-6-yl]-2-methyl-pyrazol-3-yl]-5-chloro-thieno[2,3-b]pyridine-3-carbonitrile] are 132 nM and 0.119 µM.
`COc1cccc2c(C#N)c(-c3c(-c4ccc5c(=O)[nH]nc(CN)c5c4)cnn3C)sc12` [Example 4-268, 2-[4-[4-(aminomethyl)-1-oxo-2H-phthalazin-6-yl]-2-methyl-pyrazol-3-yl]-7-methoxy-benzothiophene-3-carbonitrile]: the IC50 in assay [1] (Homo sapiens, HCT-116, 240 h) was 201 nM; at PRMT5/MEP50 complex it was 0.165 µM.
As for `Cn1ncc(-c2ccc3c(=O)[nH]nc(CN)c3c2)c1-c1sc2c(OCC(F)F)cccc2c1C#N` [Example 4-269, 2-(4-(4-(aminomethyl)-1-oxo-1,2-dihydrophthalazin-6-yl)-1-methyl-1H-pyrazol-5-yl)-7-(2,2-difluoroethoxy)benzo[b]thiophene-3-carbonitrile], the IC50 in assay [1] (Homo sapiens, HCT-116, 240 h) came out at 182 nM; at PRMT5/MEP50 complex, 0.0582 µM.
In the same order, the values of `Cn1ncc(-c2ccc3c(=O)[nH]nc(CN)c3c2)c1-c1sc2cc(Cl)ccc2c1C#N` [Example 4-270, 2-(4-(4-(aminomethyl)-1-oxo-1,2-dihydrophthalazin-6-yl)-1-methyl-1H-pyrazol-5-yl)-6-chlorobenzo-[b]thiophene-3-carbonitrile] are 400 nM and 0.102 µM.
In the same order, the values of `Cn1ncc(-c2ccc3c(=O)[nH]nc(CN)c3c2)c1-c1sc2cnccc2c1C#N` [Example 4-273, 2-[4-[4-(aminomethyl)-1-oxo-2H-phthalazin-6-yl]-2-methyl-pyrazol-3-yl]thieno[2,3-c]pyridine-3-carbonitrile] are 1440 nM and 0.376 µM.
For `Cn1ncc(-c2ccc3c(=O)[nH]nc(CN)c3c2)c1-c1sc2ccncc2c1C#N` [Example 4-274, 2-[4-[4-(aminomethyl)-1-oxo-2H-phthalazin-6-yl]-2-methyl-pyrazol-3-yl]thieno[3,2-c]pyridine-3-carbonitrile], the IC50 in assay [1] (Homo sapiens, HCT-116, 240 h) was determined as 3380 nM; on PRMT5/MEP50 complex, 1.07 µM.
In the same order, the values of `Cc1sc(-c2c(-c3ccc4c(=O)[nH]nc(CN)c4c3)cnn2C)c(C#N)c1OC1CC1` [Example 4-276, 2-(4-(4-(aminomethyl)-1-oxo-1,2-dihydrophthalazin-6-yl)-1-methyl-1H-pyrazol-5-yl)-4-cyclopropoxy-5-methylthiophene-3-carbonitrile] are 198 nM and 0.222 µM.
With `Cn1ncc(-c2ccc3c(=O)[nH]nc(C4(N)CC4)c3c2)c1-c1sc2ccccc2c1C#N` [Example 9-8, 2-(4-(4-(1-aminocyclopropyl)-1-oxo-1,2-dihydrophthalazin-6-yl)-1-methyl-1H-pyrazol-5-yl)benzo[b]thiophene-3-carbonitrile], the IC50 in assay [1] (Homo sapiens, HCT-116, 240 h) is 10000 nM; at PRMT5/MEP50 complex, greater than 10 µM.
In the same order, the values of `Cn1ncc(-c2ccc3c(=O)[nH]nc(C4(N)CCC4)c3c2)c1-c1sc2ccccc2c1C#N` [Example 9-10, 2-(4-(4-(1-aminocyclobutyl)-1-oxo-1,2-dihydrophthalazin-6-yl)-1-methyl-1H-pyrazol-5-yl) benzo[b]thiophene-3-carbonitrile] are 10000 nM and greater than 10 µM.
As for `Cn1ncc(-c2ccc3c(=O)[nH]nc(C4CCN4)c3c2)c1-c1sc2ccccc2c1C#N` (centres unmarked) [Example 9-11, 2-(4-(4-(azetidin-2-yl)-1-oxo-1,2-dihydrophthalazin-6-yl)-1-methyl-1H-pyrazol-5-yl)benzo[b]thiophene-3-carbonitrile], the IC50 is 2370 nM in assay [1] (Homo sapiens, HCT-116, 240 h) and 1.44 µM on PRMT5/MEP50 complex.
As to `Cn1ncc(-c2ccc3c(=O)[nH]nc(C4CNC4)c3c2)c1-c1sc2ccccc2c1C#N` [Example 9-12, 2-[4-[4-(azetidin-3-yl)-1-oxo-2H-phthalazin-6-yl]-2-methyl-pyrazol-3-yl]benzothiophene-3-carbonitrile], the IC50 in assay [1] (Homo sapiens, HCT-116, 240 h) turned out to be 10000 nM; on PRMT5/MEP50 complex, 4.25 µM.
Turning to `CCOc1cc(-c2cnn(C)c2-c2sc3ccccc3c2C#N)cc2c(CN)n[nH]c(=O)c12` [Example 10-24, 2-(4-(4-(aminomethyl)-8-ethoxy-1-oxo-1,2-dihydrophthalazin-6-yl)-1-methyl-1H-pyrazol-5-yl)benzo[b]thiophene-3-carbonitrile], the IC50 in assay [1] (Homo sapiens, HCT-116, 240 h) came to 166 nM; at PRMT5/MEP50 complex, 0.076 µM.
On to `Cc1cnc2sc(-c3c(-c4ccc5c(=O)[nH]nc(CN)c5c4)cnn3C)c(C#N)c2c1` [Example 12-19, 2-[4-[4-(aminomethyl)-1-oxo-2H-phthalazin-6-yl]-2-methyl-pyrazol-3-yl]-5-methyl-thieno[2,3-b]pyridine-3-carbonitrile hydrochloride], for which the IC50 was 136 nM in assay [1] (Homo sapiens, HCT-116, 240 h) and 0.212 µM on PRMT5/MEP50 complex.
As for `COCc1cccc2c(C#N)c(-c3c(-c4ccc5c(=O)[nH]nc(CN)c5c4)cnn3C)sc12` [Example 12-20, 2-[4-[4-(aminomethyl)-1-oxo-2H-phthalazin-6-yl]-2-methyl-pyrazol-3-yl]-7-(methoxymethyl) benzothiophene-3-carbonitrile hydrochloride], the IC50 in assay [1] (Homo sapiens, HCT-116, 240 h) was found to be 269 nM; on PRMT5/MEP50 complex, 0.183 µM.
Consider `Cn1ncc(-c2ccc3c(=O)[nH]nc(CN)c3c2)c1-c1sc2c(C3CCCO3)cccc2c1C#N` (centres unmarked) [Example 12-21, 2-[4-[4-(aminomethyl)-1-oxo-2H-phthalazin-6-yl]-2-methyl-pyrazol-3-yl]-7-THF-2-yl-benzothiophene-3-carbonitrile hydrochloride], for which the IC50 in assay [1] (Homo sapiens, HCT-116, 240 h) worked out at 126 nM; on PRMT5/MEP50 complex it was 0.128 µM.
In the same order, the values of `Cn1ncc(-c2cc(O)c3c(=O)[nH]nc(CN)c3c2)c1-c1sc2ccccc2c1C#N` [Example 15-6, 2-(4-(4-(aminomethyl)-8-hydroxy-1-oxo-1,2-dihydrophthalazin-6-yl)-1-methyl-1H-pyrazol-5-yl)benzo[b]thiophene-3-carbonitrile] are 138 nM and 0.235 µM.
With `Cn1ncc(-c2ccc3c(=O)[nH]c4c(c3c2)CCNC4)c1-c1sc2ccccc2c1C#N` [Example 18-1, 2-(1-methyl-4-(6-oxo-1,2,3,4,5,6-hexahydrobenzo[c][1,7]naphthyridin-9-yl)-1H-pyrazol-5-yl)benzo[b]thiophene-3-carbonitrile], the IC50 was 4140 nM in assay [1] (Homo sapiens, HCT-116, 240 h) and greater than 10 µM on PRMT5/MEP50 complex.
